In publication PMC11356571, “The Comparative Metabolism of a Novel Hepatocellular Carcinoma Therapeutic Agent, 2,3-Diamino-N-(4-(benzo[d]thiazol-2-yl)phenyl)propanamide, in Human and Animal Hepatocytes” (Metabolites, 2024):

Columns and labels:
CYP1A2 = target: T1, CYP1A2 (Homo sapiens, UniProt P05177); assay: Incubation with human cDNA-expressed CYP1A2; format: in vitro ADME; details: CYP1A2, 30 min at 37 °C with NADPH; ETN101 10 μM or M1 1 μM
T1 construct: purchased Cypex Ltd. (Dundee, UK)
T1 sequence (P05177 1-516): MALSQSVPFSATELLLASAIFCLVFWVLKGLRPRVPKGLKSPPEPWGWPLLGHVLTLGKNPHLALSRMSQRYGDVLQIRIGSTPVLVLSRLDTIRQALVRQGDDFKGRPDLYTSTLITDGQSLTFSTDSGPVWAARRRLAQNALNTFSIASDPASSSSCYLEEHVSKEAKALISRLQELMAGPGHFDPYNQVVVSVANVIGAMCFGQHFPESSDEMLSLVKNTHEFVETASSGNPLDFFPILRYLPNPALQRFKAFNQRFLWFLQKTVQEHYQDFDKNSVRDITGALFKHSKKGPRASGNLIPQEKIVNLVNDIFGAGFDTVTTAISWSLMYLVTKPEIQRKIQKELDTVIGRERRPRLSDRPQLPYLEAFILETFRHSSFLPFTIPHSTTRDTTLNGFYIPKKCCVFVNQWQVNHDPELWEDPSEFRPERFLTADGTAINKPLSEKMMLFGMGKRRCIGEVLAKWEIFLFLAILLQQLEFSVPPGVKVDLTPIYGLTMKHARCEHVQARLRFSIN
Experimental: ETN101 or M1 was incubated with nine human cDNA-expressed CYP enzymes (1A2, 2A6, 2B6, 2C8, 2C9, 2C19, 2D6, 2E1, and 3A4) to identify the CYPs involved in the metabolism of ETN101. Based on the preliminary study, the incubation conditions were determined as follows: Briefly, reaction mixtures of 50 μL containing ETN101 (final concentration: 10 μM) or M1 (final concentration: 1 μM), and CYPs (final amount: 5 pmol for CYP1A2, 2A6, 2C8, 2C9, 2C19, 2D6, and 3A4; 10 pmol for CYP2B6 and 2E1) were prepared in 0.1 M potassium phosphate buffer. The reaction was initiated by adding 50 μL of NADPH- regenerating system; the mixtures were incubated for 0 min or 30 min at 37 °C in triplicate. Reactions were terminated by the addition of 100 μL of ice-cold acetonitrile containing the IS (camptothecin, 200 ng/mL). Samples were centrifuged at 13,000 rpm for 5 min at 4 °C. An aliquot of 2 μL supernatant was injected in LC–MS/MS system.
For enzyme characterization, an Agilent 6460 triple quadrupole mass spectrometer coupled with a 1260 HPLC system (Agilent Technologies, Santa Clara, CA, USA) and a Kinetex Halo® C18 column (2.7 μm, 2.1 × 50 mm, Advanced Material Technology, Wilmington, DE, USA) were used for chromatographic separation. […] ETN101, M1, and M2 were detected via MRM using ESI in the positive mode. […]

monkey hepatocytes = assay: Metabolite characterization in monkey hepatocytes; format: in vitro ADME; details: monkey hepatocyte 1 h incubates of ETN101; ND:<1.2E+05 peak area
Experimental: We mixed 60 μL aliquots of 40 μM ETN101 in incubation medium and an equal volume of human, mouse, rat, dog, or monkey hepatocyte suspension in 96-well plates and incubated for 0 or 1 h in a CO2 incubator at 37 °C. The reactions were quenched by adding 120 µL of ice-cold acetonitrile to each well, and the cell suspension was sonicated for 5 min at 4 °C. Subsequently, centrifugation was carried out at 15,000× g for 10 min at 4 °C. Next, the supernatants were evaporated to dryness using a vacuum concentrator, and residues were re-dissolved in 70 μL of 30% acetonitrile. Each sample (5 μL aliquots) was analyzed using LC–HRMS system.
For metabolite characterization, a Vanquish HPLC system (Thermo Fisher Scientific, San José, CA, USA) coupled with a Q-Exactive Orbitrap mass spectrometer (Thermo Fisher Scientific Inc., Waltham, MA, USA) was used at Core Research Support Center for Natural Products and Medical Materials at Yeungnam University. […] The eluent from the column was directly injected into the mass spectrometer using a heated electrospray ionization (HESI) source in positive ionization mode. […] The spray voltage was 3.0 kV and the capillary temperature was 320 °C. Full scan MS^1 with a data-dependent MS^2 acquisition mode was applied to obtain MS^1 scan data ranging from m/z 80 to 900, at a resolution of 70,000, whereas data-dependent MS^2 spectra were acquired for the five most abundant peaks per cycle at a resolution of 35,000. The parallel reaction monitoring (PRM) mode was used to obtain the MS^2 spectra of putative metabolites detected at low peak intensities in the data-dependent MS^2 acquisition mode. Data were collected and interpreted using Thermo Scientific Xcalibur™ Software (Thermo Fisher Scientific).

| SMILES | Percentage remaining (CYP1A2) | Relative peak area (%) (monkey hepatocytes) |
| --- | --- | --- |
| NCC(N)C(=O)Nc1ccc(-c2nc3ccccc3s2)cc1 (stereo not shown) [ETN101, 2,3-diamino-N-(4-(benzo[d]thiazol-2-yl)phenyl)propanamide] | 126.3% | 69.0% |
| Nc1ccc(-c2nc3ccccc3s2)cc1 [M1, 2-(4-aminophenyl)benzothiazole] | 5.3% | 21.5% |
